Assay results taken from ChEMBL document CHEMBL3137667, “[Drug-induced liver injury; fourteenth updated edition of the bibliographic database of liver injuries and related drugs]” (Gastroenterol Clin Biol, 2004).

Experiments:
[1] = Comments (NB not yet translated). [column 'COMMENTAIRES' in source]; details: human
[2] = human, serum
[3] = human
[4] = human; remark: listed apart in the source
[5] = Proposed mechanism(s) of liver damage. [column 'MEC' in source]; details: human
[6] = human, serum, 4383 h
[7] = human, serum; remark: listed apart in the source
[8] = human; remark: listed apart in the source
[9] = human; remark: listed apart in the source
[10] = Highest frequency of moderate liver toxicity observed during clinical trials, expressed as a percentage. [column '% BIOL' in source]; details: human
[11] = human; remark: listed apart in the source
[12] = human; remark: listed apart in the source
[13] = Highest frequency of acute liver toxicity observed during clinical trials, expressed as a percentage. [column '% AIGUE' in source]; details: human
[14] = human; remark: listed apart in the source
[15] = human; remark: listed apart in the source
[16] = Times to onset, minimal and maximal, observed in the indexed observations. [column 'DELAI' in source]; details: human
[17] = human; remark: listed apart in the source
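For Hepatotoxicity (association with vascular disease) in this document: count of indexed literature references reporting vascular liver injury in humans, e.g. peliosis hepatitis, hepatic veno-occlusive disease or Budd-Chiari syndrome.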
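For Hepatotoxicity (benign tumour) in this document: value is a count of indexed literature references citing a benign tumour confirmed by histopathology.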
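For Hepatotoxicity (choleostasis) in this document: human cholestatic liver injury, shown by histopathology or by peak ALT or AST elevation over alkaline phosphatase ratio below 2, value counts indexed literature reports.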
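For Hepatotoxicity (chronic liver disease) in this document: chronic liver injury confirmed by histopathology or persistently raised serum aminotransferase activity beyond 6 months, value given as the count of indexed literature references.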
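For Hepatotoxicity (cirrhosis) in this document: value is a count of indexed literature references reporting cirrhosis confirmed by histopathology.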
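For Hepatotoxicity (cytolytic) in this document: human cytolytic liver injury, shown by histopathology or by a ratio above 5 of peak ALT or AST elevation to alkaline phosphatase elevation, value counts indexed references.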
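For Hepatotoxicity (granulomatous hepatitis) in this document: value is a count of indexed literature references reporting granulomatous liver disease confirmed by histopathology.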
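For Hepatotoxicity (malignant tumour) in this document: malignant tumour confirmed by histopathology, value gives the count of indexed literature references reporting it.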
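For Hepatotoxicity (severe hepatitis) in this document: human clinical data: severe hepatitis, meaning potentially life-threatening liver failure or clinically observed cases, the value counts how many indexed literature references report it.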
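For Hepatotoxicity (steatosis) in this document: steatosis confirmed by histopathology, value is the count of indexed references.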

Molecule | Hepatotoxicity (comment) [1] | Hepatotoxicity (acute) [2] | Hepatotoxicity (severe hepatitis) ([3]; Liver) | Hepatotoxicity (chronic liver disease) [6] | Hepatotoxicity (moderate) [7] | Hepatotoxicity (malignant tumour) [8] | Hepatotoxicity (association with vascular disease) [9] | Hepatotoxicity (moderate) ([10]; Liver) | Hepatotoxicity (benign tumour) [11] | Hepatotoxicity (cirrhosis) [14] | Hepatotoxicity (steatosis) [15] | Hepatotoxicity (time to onset) [16] | Hepatotoxicity (severe hepatitis) [3] | Hepatotoxicity (granulomatous hepatitis) [4] | Hepatotoxicity (mechanism) [5] | Hepatotoxicity (moderate) [10] | Hepatotoxicity (cytolytic) [12] | Hepatotoxicity (acute) [13] | Hepatotoxicity (choleostasis) [17] | also measured
Cc1c(C)c2c(c(C)c1O)CC[C@@](C)(CCC[C@H](C)CCC[C@H](C)CCCC(C)C)O2 [ALPHA-TOCOPHEROL] | CONCERNE_E-FEROL* | 3 | 4 | 0 | 0 | 0 | 0 | 0% | 0 | 0 | 0 | 1 week - 2 months | – | – | – | – | – | – | – | Hepatotoxicity (granulomatous hepatitis) ([4]; Liver): 0; Hepatotoxicity (mechanism) ([5]; Liver): Dose-dependant; Hepatotoxicity (cytolytic) ([12]; Liver): 3; Hepatotoxicity (acute) ([13]; Liver): 0%; Hepatotoxicity (choleostasis) ([17]; Liver): 3
CCCN(CCC)C(=O)Cc1c(-c2ccc(Cl)cc2)nc2ccc(Cl)cn12 [ALPIDEM] | AC_ANTI-N | 5 | – | 0 | 0 | 0 | 0 | – | 0 | 0 | 0 | 1 month - 8 months | 5 | 0 | Allergic | 0% | 4 | 0% | 0 | –
CCOC(=O)C1=C(COCCN)NC(C)=C(C(=O)OC)C1c1ccccc1Cl (stereo not given) [AMLODIPINE] | CHOLANGIOLITE AC_ANTI-M/-N RC/DILTIAZEM | 4 | 0 | 0 | 2 | 0 | 0 | 12.8% | 0 | 0 | 0 | 1 month - 10 months | – | 0 | Allergic | – | 3 | – | 2 | Hepatotoxicity (acute) ([13]; Liver): 0%
CC1(C)S[C@@H]2[C@H](NC(=O)[C@H](N)c3ccc(O)cc3)C(=O)N2[C@H]1C(=O)O [AMOXICILLIN] | CHOLESTASE_PROLONGEE CHOLANGITE DUCTOPENIE RC/ERYTHROMYCINE | 10 | 1 | 1 | 7 | 0 | 0 | 8% | 0 | 0 | 0 | 3 days - 8 weeks | – | 1 | Allergic | – | 2 | – | 7 | Hepatotoxicity (acute) ([13]; Liver): 0%
CC(C)c1c(C(=O)Nc2ccccc2)c(-c2ccccc2)c(-c2ccc(F)cc2)n1CC[C@@H](O)C[C@@H](O)CC(=O)O [ATORVASTATIN] | AC_ANTI-N/-ML | 10 | – | 1 | 36 | 0 | 0 | – | 0 | 1 | 0 | 6 days - 7 months | 1 | 0 | Allergic | 13.6% | 5 | 1.8% | 6 | –
CC[C@H]1OC(=O)[C@H](C)[C@@H](O[C@H]2C[C@@](C)(OC)[C@@H](O)[C@H](C)O2)[C@H](C)[C@@H](O[C@@H]2O[C@H](C)C[C@H](N(C)C)[C@H]2O)[C@](C)(O)C[C@@H](C)CN(C)[C@H](C)[C@@H](O)[C@]1(C)O [AZITHROMYCIN] | CHOLANGITE | 5 | – | 0 | 53 | 0 | 0 | – | 0 | 0 | 0 | 3 days - 18 days | 0 | 0 | Allergic | 40% | 0 | 0% | 4 | –
CO[C@@]1(NC(=O)Cc2cccs2)C(=O)N2C(C(=O)O)=C(COC(N)=O)CS[C@@H]21 [CEFOXITIN] | CHOLESTASE_PROLONGEE | 1 | – | 0 | 18 | 0 | 0 | – | 0 | 0 | 0 | 17 days | 0 | 0 | Allergic | 25.8% | 0 | 0% | 1 | –
CC(=O)OCC1=C(C(=O)O)N2C(=O)[C@@H](NC(=O)Cc3cccs3)[C@H]2SC1 [CEPHALOTHIN] | RC/NAFCILLINE/OXACILLINE/CEFAPIRINE | 4 | – | 0 | 4 | 0 | 0 | – | 0 | 0 | 0 | 1 day - 1 month | 0 | 0 | Allergic | 1.5% | 1 | 0% | 1 | –
CC1=C(C(=O)O)N2C(=O)[C@@H](NC(=O)[C@H](N)C3=CCC=CC3)[C@H]2SC1 [CEPHRADINE] | CHOLECYSTITE_A_EOSINOPHILES | 1 | – | 0 | 1 | 0 | 0 | – | 0 | 0 | 0 | 3 weeks | 0 | 0 | Allergic | 24.3% | 0 | 0% | 1 | –
Cc1cnc(C(=O)NCCc2ccc(S(=O)(=O)NC(=O)NC3CCCCC3)cc2)cn1 [GLIPIZIDE] | AC_ANTI-ML | – | 2 | 0 | 1 | 0 | 0 | 0% | 0 | 0 | 0 | 2 days - 5 months | – | 0 | Allergic | – | 3 | – | 0 | –
O=C(Nc1ccc(Cl)cc1)NS(=O)(=O)c1ccc2c(c1)CCC2 [SULOFENUR] | CHOLANGITE | 6 | – | 0 | 9 | 0 | 0 | – | 0 | 0 | 0 | – | 0 | 0 | Dose-dependant | 80% | 4 | 18.8% | 3 | –
RITUXIMAB | REACTIVATION_HVB | 4 | – | 0 | 1 | 0 | 0 | – | 0 | 0 | 0 | 2 months - 7 months | 3 | 0 | – | 5.6% | 4 | 0% | 0 | –
